From patent US9296716B2, “Androgen receptor ligands” (THE PROVOST, FELLOWS, FOUNDATION SCHOLARS, & THE OTHER …, priority 2011, dated 2016) come the findings set out here.

One test has as its target T1, AR-LBD wt (Homo sapiens, UniProt P10275).
T1 sequence (P10275 669-900 limits assumed): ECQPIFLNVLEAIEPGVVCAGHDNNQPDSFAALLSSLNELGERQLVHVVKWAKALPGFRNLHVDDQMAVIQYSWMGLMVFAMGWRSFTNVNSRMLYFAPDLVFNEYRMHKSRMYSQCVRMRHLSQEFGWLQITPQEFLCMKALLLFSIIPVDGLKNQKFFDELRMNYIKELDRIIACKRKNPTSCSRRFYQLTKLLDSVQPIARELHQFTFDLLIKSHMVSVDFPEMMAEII
The experiment in a line: Lanthascreen TR-FRET AR coactivator (D11-FxxLF) assay, AR-LBD wt. The format is biochemical. The conditions noted are these: TR-FRET in agonist and antagonist mode. For orientation: TR-FRET usually uses a lanthanide donor and a delayed reading to cut background.
Take `C/C(=N\NC(=O)c1cc2ccccc2cc1O)C1C(=O)c2ccccc2C1=O` [MDG603]: the “type of AR antagonism (full / partial)” value is reported as “full AR antagonists”.

Still in this test, the particulars now being: TR-FRET, D11-FxxLF peptide, DHT = EC80; read-out: Activity (AR wt TR-FRET).
Regarding `O=C(N/N=C/c1cccc(O)c1O)c1ccccc1` [MDG485], the IC50 was more than 100 µM. On the same count and under the same terms, then `COc1ccc(C(=O)NNC(=O)c2cc3ccccc3cc2O)cc1` [MDG484], with more than 100 µM; and `Nc1ccccc1/C=N/NC(=O)c1cc2ccccc2cc1O` [MDG632], with more than 100 µM; and `C/C(=N\NC(=O)c1cc2ccccc2cc1O)C1C(=O)c2ccccc2C1=O` [MDG603], with 11.3 ± 2.6 µM. Regarding `O=C(N/N=C(\c1ccccc1)c1ccc2ccccc2c1)c1cc2ccccc2cc1O` [MDG627], the IC50 is more than 100 µM. In the case of `CC(C)Oc1ccc(/C=N/NC(=O)c2cc3c(ccc4ccccc43)o2)cc1` [MDG502], the IC50 was more than 100 µM. `COc1cc(/C=N/NC(=O)c2cc3c(ccc4ccccc43)o2)c(Br)cc1O` [MDG516]: the IC50 is more than 100 µM. On to `CCCOc1ccc(/C=N/NC(=O)c2cc3c(ccc4ccccc43)o2)cc1OC` [MDG509], for which the IC50 is more than 100 µM. Consider `O=C(N/N=C/c1cccc(O)c1O)c1ccccc1O` [MDG486], for which the IC50 was more than 100 µM. Turning to `O=C(N/N=C/c1ccccc1[N+](=O)[O-])c1cc2ccccc2cc1O` [MDG631], the IC50 was more than 100 µM. In the case of `O=C(N/N=C/c1ccc2ccccc2c1O)c1cc2ccccc2cc1O` [MDG624], the IC50 is more than 100 µM. The same measure, in the same setting: then `C/C(=N\NC(=O)c1cc2ccccc2cc1O)c1ccco1` [MDG604], with more than 100 µM; and `CCOc1cc(/C=N/NC(=O)c2cc3ccccc3cc2O)ccc1O` [MDG481], with more than 100 µM; and `O=C(N/N=C/c1cccc(OCc2ccccc2)c1)c1cc2ccccc2cc1O` [MDG495], with more than 100 µM. For the molecule `Cc1cccc(/C=N/NC(=O)c2cc3ccccc3cc2O)c1` [MDG497], the IC50 is more than 100 µM. As for `O=C(N/N=C/c1cccc(Cl)c1Cl)c1cc2ccccc2cc1O` [MDG496], the IC50 is more than 100 µM. Take `O=C(N/N=C/c1ccccc1C(=O)O)c1cc2ccccc2cc1O` [MDG490]: the IC50 is more than 100 µM. For the molecule `Cc1ccccc1/C=N/NC(=O)c1cc2ccccc2cc1O` [MDG492], the IC50 was more than 100 µM. Regarding `Cc1ccc(O)c(/C=N/NC(=O)c2cc3ccccc3cc2O)c1` [MDG609], the IC50 is more than 100 µM. Same read-out and setting: to `COc1cc(/C=N/NC(=O)c2cc3c(ccc4ccccc43)o2)cc(Cl)c1OCc1ccccc1` [MDG515] belongs more than 100 µM; to `COc1ccccc1/C=N/NC(=O)c1ccc2ccccc2c1O` [MDG599], more than 100 µM; to `O=C(N/N=C/c1ccc(O)c(Br)c1)c1cc2c(ccc3ccccc32)o1` [MDG500], more than 100 µM.

For `COc1cc2ccccc2cc1C(=O)N/N=C/c1ccccc1O` [MDG600], the IC50 is more than 100 µM. With `COc1cc(/C=N/NC(=O)c2cc3ccccc3cc2O)cc(OC)c1O` [MDG489, 3-hydroxy-N′-(4-hydroxy-3,5-dimethoxybenzylidene)-2-naphthohydrazide], the IC50 is more than 100 µM.

As for `O=C(N/N=C/c1cccc2ccccc12)c1cc2ccccc2cc1O` [MDG607], the IC50 was more than 100 µM. Regarding `COc1ccc(Br)cc1/C=N/NC(=O)c1cc2ccccc2cc1O` [MDG620], the IC50 is more than 100 µM. Turning to `O=C(N/N=C/c1ccc(Cl)c([N+](=O)[O-])c1)c1cc2ccccc2cc1O` [MDG623], the IC50 was more than 100 µM. Regarding `CCN(CC)c1ccc(/C=N/NC(=O)c2cc3ccccc3cc2O)cc1` [MDG493], the IC50 was more than 100 µM. The same measure, in the same setting: then `COc1c(Cl)cc(/C=N/NC(=O)c2cc3c(ccc4ccccc43)o2)cc1Cl` [MDG513], with more than 100 µM.

Consider `O=C(N/N=C/c1cc(Cl)ccc1[N+](=O)[O-])c1cc2ccccc2cc1O` [MDG633], for which the IC50 is more than 100 µM.

Regarding `O=C(N/N=C/c1ccc2ccccc2c1)c1cc2ccccc2cc1O` [MDG625], the IC50 was more than 100 µM. As to `O=C(N/N=C/c1ccc2ccccc2c1)c1ccccc1O` [MDG487], the IC50 is more than 100 µM. For the molecule `O=C(N/N=C/c1cc(Cl)ccc1O)c1ccc2ccccc2c1` [MDG622], the IC50 is more than 100 µM. For the molecule `O=C(N/N=C/c1cc2ccccc2cc1O)c1ccc(C(=O)N/N=C/c2cc3ccccc3cc2O)cc1` [MDG602], the IC50 is more than 100 µM. Same read-out and setting: to `COc1ccccc1/C=N/NC(=O)c1cc2ccccc2cc1O` [MDG619] belongs more than 100 µM. For the molecule `O=C(N/N=C/c1cccc(Cl)c1O)c1cc2ccccc2cc1O` [MDG618, 3-hydroxy-N′-(2-hydroxy-3-chlorobenzylidene)-2-naphthohydrazide], the IC50 was more than 200 µM. Still for that read-out and setting: to `O=C(N/N=C/c1cc(I)ccc1O)c1cc2ccccc2cc1O` [MDG613] belongs more than 100 µM; to `O=C(C/C=N/C=N/NC(=O)c1ccccc1O)c1ccccc1O` [MDG601], more than 100 µM. On the same count and under the same terms, then `C/C(=N\NC(=O)c1cc2ccccc2cc1O)c1cc(Cl)ccc1O` [MDG621, 3-hydroxy-N′-[(1E)-1-(2-hydroxy-5-chlorophenyl)ethylidene]-2-naphthohydrazide], with more than 100 µM. Still for that read-out and setting: then `O=C(N/N=C/c1ccccc1)c1cc2ccccc2cc1O` [MDG628, 3-hydroxy-N′-benzylidene-2-naphthohydrazide], with more than 100 µM; and `C/C(=N\NC(=O)c1cc2ccccc2cc1O)c1ccc2ccccc2c1` [MDG626], with more than 100 µM.

Consider `COc1ccc(/C=N/NC(=O)c2cc3c(ccc4ccccc43)o2)c2ccccc12` [MDG503], for which the IC50 is more than 100 µM. On the same count and under the same terms, then `CCOc1ccc(/C=N/NC(=O)c2cc3c(ccc4ccccc43)o2)cc1` [MDG512], with more than 100 µM; and `COc1cc(Cl)cc(/C=N/NC(=O)c2cc3ccccc3cc2O)c1O` [MDG615], with more than 100 µM. Turning to `CC(C)(C)c1ccc(O)c(/C=N/NC(=O)c2cc3ccccc3cc2O)c1` [MDG610], the IC50 was more than 100 µM. Same read-out and setting: then `CCOc1c(Cl)cc(/C=N/NC(=O)c2cc3c(ccc4ccccc43)o2)cc1Cl` [MDG514], with more than 100 µM; and `COc1cc(/C=N/NC(=O)c2cc3c(ccc4ccccc43)o2)cc(OC)c1OC` [MDG511], with more than 100 µM; and `COc1cccc(/C=N/NC(=O)c2cc3c(ccc4ccccc43)o2)c1` [MDG505, N′-(3-methoxybenzylidene)naphtho[2,1-b]furan-2-carbohydrazide], with more than 100 µM. Take `COc1ccc(/C=N/NC(=O)c2cc3ccccc3cc2O)cc1O` [MDG494]: the IC50 is more than 100 µM. In the case of `COc1cc(Br)cc(/C=N/NC(=O)c2cc3c(ccc4ccccc43)o2)c1O` [MDG501], the IC50 was more than 100 µM. `O=C(N/N=C/c1ccc(OCc2ccccc2)cc1)c1cc2c(ccc3ccccc32)o1` [MDG499]: the IC50 was more than 100 µM. Regarding `CCOc1cc(/C=N/NC(=O)c2cc3ccccc3o2)cc(I)c1OC` [MDG598], the IC50 was more than 100 µM. `CCOc1ccc(/C=N/NC(=O)c2cc3ccccc3cc2O)cc1O` [MDG488]: the IC50 was more than 100 µM.

With `CCCOc1ccc(/C=N/NC(=O)c2cc3c(ccc4ccccc43)o2)cc1OCC` [MDG510], the IC50 was more than 100 µM. Turning to `O=C(N/N=C/c1cccnc1)c1cc2ccccc2cc1O` [MDG482], the IC50 was more than 100 µM.

Consider `COc1ccc(/C=N/NC(=O)c2cc3c(ccc4ccccc43)o2)cc1O` [MDG507], for which the IC50 is more than 100 µM. On the same count and under the same terms, to `COc1ccc(/C=N/NC(=O)c2cc3c(ccc4ccccc43)o2)cc1C` [MDG504] belongs more than 100 µM.
